Assay results from patent publication US9521847B2, “Synergistic weed control from applications of pyridine carboxylic acid herbicides and synthetic auxin herbicides and/or auxin transport inhibitors” (Dow AgroSciences LLC, priority 2014, dated 2016).

Columns and labels:
[1] = test system: kochia (KCHSC, Kochia scoparia); test: Patio postemergence trial, % visual injury; assay type: in vivo; conditions: 280 g ae/ha alone, 20-22 d
Description: (§1) The plants were grown for 7-36 days (d) on a fenced, open-air patio. Nutrients and water were added on a regular basis.
(§2) Temperatures and photoperiods were dependent on the natural weather conditions during the trials. Weather conditions during trials were conducive for plant growth and development.

[2] = test system: pigweed (AMARE, Amaranthus retroflexus); test: Patio postemergence trial, % visual injury; assay type: in vivo; conditions: 280 g ae/ha alone, 20-22 d
Description: as §1, §2

[3] = test system: wild buckwheat (POLCO, Polygonum convolvulus); test: Small plot field trial (Canada), % visual injury; assay type: in vivo; conditions: 560 g ae/ha alone, 15 DAA
Description: (§3) Trials were established as randomized complete blocks with 3-4 replicates. Individual plots were 2-3 meters (m) wide and 8-10 m long. Applications were made with backpack or tractor-mounted sprayers delivering a spray volume output of 100 liters per hectare (L/ha) using pressurized carbon dioxide (CO2) as a propellant. Compound 7 was combined with 2,4 D EHE (660 g ae/L EC formulation) and applied to spring wheat (TRZAS), and the phytotoxicity of the herbicidal compositions was measured. In addition, the efficacy of the herbicidal composition on Canadian thistle ([…], Cirsium arvense), […] scoparia), mallow ([…] pusilla), wild buckwheat (POLCO, Polygonum convolvulus), and lady's thumb (POLPE, Polygonum persicaria) was evaluated.

[4] = test system: kochia (KCHSC, Kochia scoparia); test: Small plot field trial (Canada), % visual injury; assay type: in vivo; conditions: 560 g ae/ha alone, 46-64 DAA
Description: as §3

[5] = test system: lady's thumb (POLPE, Polygonum persicaria); test: Small plot field trial (Canada), % visual injury; assay type: in vivo; conditions: 560 g ae/ha alone, 14-16 DAA
Description: as §3

[6] = test system: CIRAR = Cirsium arvense (Canadian thistle); test: Small plot field trial (Canada), % visual injury; assay type: in vivo; conditions: 560 g ae/ha alone, 46-64 DAA
Description: as §3

[7] = test system: blackgrass (Alopecurus myosuroides, ALOMY); test: Greenhouse postemergence trial, % visual injury; assay type: in vivo; conditions: 140 g ae/ha
[8] = test system: spring wheat (TRZAS); test: Small plot field trial (Canada), crop phytotoxicity (% visual injury); assay type: in vivo, Triticum aestivum; conditions: 560 g ae/ha alone
Description: Small plot field trials were established in Canada to evaluate efficacy and crop safety of Compound 7 with 2,4-D EHE. Trials were established as randomized complete blocks with 3-4 replicates. Individual plots were 2-3 meters (m) wide and 8-10 m long. Applications were made with backpack or tractor-mounted sprayers delivering a spray volume output of 100 liters per hectare (L/ha) using pressurized carbon dioxide (CO2) as a propellant. Compound 7 was combined with 2,4 D EHE (660 g ae/L EC formulation) and applied to spring wheat (TRZAS), and the phytotoxicity of the herbicidal compositions was measured. In addition, the efficacy of the herbicidal composition on Canadian thistle ([…], Cirsium arvense), kochia (KCHSC, Kochia scoparia), mallow (MALPU, Marva pusilla), wild buckwheat (POLCO, Polygonum convolvulus), and lady's thumb (POLPE, Polygonum persicaria) was evaluated.

[9] = test system: winter wheat (TRZAW); conditions: winter wheat (Triticum aestivum), in vivo
[10] = test system: wild radish (Raphanus raphanistrum, RAPRA); test: Greenhouse postemergence trial, % visual injury; assay type: in vivo
[11] = test system: large crabgrass (Digitaria sanguinalis, DIGSA); test: Greenhouse postemergence trial, % visual injury; assay type: in vivo; conditions: Digitaria sanguinalis, post-emergence; DIGSA, 5 g ae/ha; read-out: % visual injury, Obs
[12] = test system: rutabaga (Brassica napus var. napobrassica, BRSNA); test: Greenhouse postemergence trial, % visual injury; assay type: in vivo
[13] = test system: Chinese kale (Brassica alboglabra, BRSAG); test: Greenhouse postemergence trial, % visual injury; assay type: in vivo; conditions: for % visual injury, Obs: BRSAG, compound 1 (EC) 5 g ae/ha
[14] = test system: brown mustard (Brassica juncea, BRSJU); test: Greenhouse postemergence trial, % visual injury; assay type: in vivo
[15] = test system: Indian hedge mustard (Sisymbrium orientale, SSYOR); test: Greenhouse postemergence trial, % visual injury; assay type: in vivo
[16] = test system: Roundup Ready rape (Brassica napus, BRSNN-RR); test: Greenhouse postemergence trial, % visual injury; assay type: in vivo; conditions: compound 1 (EC) 5 g ae/ha
[17] = test system: ivyleaved speedwell (Veronica hederifolia, VERHE); test: Greenhouse postemergence trial, % visual injury; assay type: in vivo; conditions: compound 1 (EC) 5 g ae/ha
[18] = test system: soybean (Glycine max, GIAMA); test: Greenhouse postemergence trial, % visual injury; assay type: in vivo; conditions: GLXMA
[19] = test system: barnyardgrass (Echinochloa crus-galli, ECHCG); test: Greenhouse postemergence trial, % visual injury; assay type: in vivo
[20] = 5 g ae/ha alone (compound 1 as EC), 20-22 d

CCCCC(CC)COC(=O)COc1ccc(Cl)cc1Cl (centres unmarked) [2,4-D EHE, 2-ethylhexyl (2,4-dichlorophenoxy)acetate, reference compound]
% visual injury Obs [1]: 10%
% visual injury Obs [2]: 50%
% visual injury Obs [3]: 51%
% visual injury Obs [4]: 25%
% visual injury Obs [5]: 55%
% visual injury Obs [6]: 65%
% visual injury, Obs [7]: 0%
% visual injury Obs ([8]; 6-8 DAA): 3%
% visual injury Obs ([8]; 14-16 DAA): 0%
% visual injury, Obs [9]: 0%

Nc1c(F)c(-c2ccc3cc[nH]c3c2F)nc(C(=O)O)c1Cl [compound 1]
% visual injury (Obs) ([10]; compound 1 SC 2.5 g ae/ha): 13%
% visual injury (Obs) ([10]; compound 1 SC 5 g ae/ha): 13%
pest or weed control at 5 g/ha [11]: 0%
% visual injury Obs [12, 20]: 65%
% visual injury, Obs ([12]; BRSNA, compound 1 (EC) 5 g ae/ha, Table 63): 65%
% visual injury Obs [13, 20]: 15%
% visual injury, Obs ([13]; Table 62): 15%
% visual injury, Obs ([13]; Table 63): 15%
% visual injury Obs [14, 20]: 60%
% visual injury, Obs ([14]; BRSJU, compound 1 (EC) 5 g ae/ha, Table 62): 60%
% visual injury (Obs) ([15]; compound 1 SC 2.5 g ae/ha): 13%
% visual injury (Obs) ([15]; compound 1 SC 5 g ae/ha): 20%
% visual injury, Obs ([16]; Table 62): 35%
% visual injury, Obs ([16]; Table 63): 35%
% visual injury (Obs) [17]: 40%
% visual injury, Obs ([18]; 5 g ae/ha): 95%
% visual injury, Obs ([18]; 10 g ae/ha): 100%
% visual injury, Obs ([19]; ECHCG, 5 g ae/ha): 65%
% visual injury (Obs) ([19]; compound 1 (EC) 5 g ae/ha): 65%
